Assay results taken from patent US8652483B2, “Viral infection enhancing peptide” (priority 2010, dated 2014).
Where “and” joins values, the source holds several entries; their conditions need not be identical. Identical values can stand only once. No end group written: not given here.

Experiments:
Solubility limit in DMSO = assay type: physicochemical; details: read-out: solubility limit in DMSO (concentrations above were not completely dissolved)
[1] = system: primary peripheral blood mononuclear cells (PBMC); assay: Cytotoxicity of SWB; assay type: cell-based
Jurkat T cells = assay: Cytotoxicity of SWB; assay type: cell-based
CEM-M7 cells = assay: Cytotoxicity of SWB; assay type: cell-based
KG-1 cells = assay: Cytotoxicity of SWB; assay type: cell-based, human
[2] = system: R5 HIV-1 (CCR5 tropic HIV-1 NL4-3 92TH014-2); assay: HIV-1 infection of TZM-bl cells, R5 virus; assay type: cell-based; details: for enhancement of HIV infection: 1 ng p24 virus, 100 μg/ml peptide; for enhancers of HIV infection at the lowest viral dose: 0.01 ng p24 virus
[3] = Thioflavin T (ThT) fluorescence; assay type: physicochemical; details: DMSO stock freshly diluted in PBS
Experimental: (§1) To investigate if SW1010 (like PAP248-286) forms insoluble aggregates, in particular amyloid like material, the reactivity of a freshly prepared SW1010 peptide solution to the amyloid specific dye Thioflavin T (ThT) was analyzed. […] Further evidence that SW1010 forms amyloid like material was derived by staining with another amyloid specific dye, Congo Red (CR) (Münch et al., 2007). […] Thus, when used to enhance retroviral infection or transduction efficiencies (FIG. 1 F), the peptide of the invention provides an important advantage over SEVI amyloid fibrils that have to be generated by agitating the monomeric PAP248-286 by several hours or days on a table rotator (Münch et al., 2007; Wurm et al., 2009).
(§2) Similarly, all SW1010 derivatives were analyzed for ThT and CR reactivity.

[4] = Congo Red (CR) staining assay; assay type: physicochemical; details: DMSO stock freshly diluted in PBS
Experimental: as §1, §2
To test if SWB is soluble in solvents other than DMSO and can form virus enhancing amyloid like material upon diluting in PBS, the inventors resuspended SWB powder in various solvents. […] Since acetic acid stocks were highly toxic for cell culture at higher concentrations, all following SWB stock solutions were then prepared by dissolving the peptide in less cytotoxic DMSO. In all subsequent experiments the concentrations of DMSO in the presence of virus or cells were lower than 1%, preferably between about 0.2 and about 1%.

| Substance | enhancement of HIV infection [2] | ThT fluorescence [3] | Congo Red (CR) staining [4] | enhancers of HIV infection at the lowest viral dose [2] | also measured |
| --- | --- | --- | --- | --- | --- |
| QCKIKQIINMWQ [SWB] |  |  |  |  | solubility (Solubility limit in DMSO): 25000 µM and 38000 µg/mL; toxic effects [1]: no toxic effects; toxic effects (Jurkat T cells): no toxic effects; toxic effects (CEM-M7 cells): no toxic effects; toxic effects (KG-1 cells): no toxic effects |
| SW1014: N-terminal half of SW1010 (QIINMWQEVG; SW-peptide derived from peptide gp120 of HIV-1 strain MN (Gurgo et al., 1988)) | weak or no effects | increases fluorescence intensities | specific staining |  |  |
| SWC: variant of SW1010 of different length (KIKQIINMWQ; SW-peptide derived from peptide gp120 of HIV-1 strain MN (Gurgo et al., 1988)) |  |  | specific staining | most potent enhancers |  |
| SWCON: peptide derived from a SW1010 homologous consensus sequence of all HIV-1 M strains (TITLPCRIKQIINMWQGVG; SW-peptide derived from peptide gp120 of HIV-1 strain MN (Gurgo et al., 1988)) |  | increases fluorescence intensities | specific staining | most potent enhancers |  |
| SWE: variant of SW1010 of different length (QCKIKQIINMW; SW-peptide derived from peptide gp120 of HIV-1 strain MN (Gurgo et al., 1988)) |  | increases fluorescence intensities | specific staining | most potent enhancers |  |
| SWNL43: peptide corresponding to SW1010 of the HIV-1 clone NL4-3 (TITLPCRIKQFINMWQEVG; SW-peptide derived from peptide gp120 of HIV-1 strain MN (Gurgo et al., 1988)) | weak or no effects |  | did react with CR to a lesser extend |  |  |
